According to ChEMBL document CHEMBL4385648 (Bioorg Med Chem, 2019):

How the values were obtained:
[1] = Inhibition of Influenza A virus (A/Babol/36/2005 (H3N2) neuraminidase expressed by HEK293 cells incubated for 1 hr using 4-MU-NANA substrate by spectrofluorometric assay; assay type: cell-based
Neuraminidase = Neuraminidase (Influenza A virus, UniProt B4URF0); experiment: Inhibition of Influenza A virus (A/Anhui/1/2013 (H7N9) neuraminidase expressed by HEK293 cells incubated for 1 hr using 4-MU-NANA substrate by spectrofluorometric assay; assay type: cell-based

SMILES	IC50 ([1]; read-out: IC50) [µM]	IC50 (Neuraminidase; read-out: IC50) [µM]	IC50 [1]	IC50 (Neuraminidase; hek293)
CCCC(=O)c1c(O)c(C=O)c(O)c(Cc2c(O)c(C=O)c(O)c(C(=O)CCC)c2O)c1O	9.8	2.5	–	–
CCCC(=O)c1c(O)cc(O)c(CC2=C(O)C(C)(C)C(O)=C(C(C)=O)C2=O)c1O	5.6	1.6	–	–
CCCC(=O)c1c(O)c(CC2=C(O)C(C)(C)C(O)=C(C(C)=O)C2=O)c(O)c(Cc2c(O)c(CC3=C(O)C(C)(C)C(O)=C(C(C)=O)C3=O)c(O)c(C(=O)CCC)c2O)c1O	36.1	3.6	–	–
CC(=O)C1=C(O)C(C)(C)C(O)=C(CC2=C(O)C(C)(C)C(O)=C(C(C)=O)C2=O)C1=O	–	–	Not Active	Not Active
CCOC(=O)C1=C[C@@H](OC(CC)CC)[C@H](NC(C)=O)[C@@H](N)C1 [OSELTAMIVIR]	0.1	–	–	–
